Reference: EP1432683B9 (Recordati Ireland Limited, priority 2001, dated 2003)
Structures can show the parent of a compound that is named as a salt.

Assays:
[1] = Solubility of crude forms compared with other crude forms; type: physicochemical
[2] = oral administration; cited from earlier work

Row | SMILES | solubility compared to other crude forms previously reported [1] | peak plasma levels occurring (time following dosing) [2]
1 | COC(=O)C1=C(C)NC(C)=C(C(=O)OC(C)(C)CN(C)CCC(c2ccccc2)c2ccccc2)C1c1cccc([N+](=O)[O-])c1 (centres unmarked) [Form (A), lercanidipine hydrochloride] | higher solubility | 
2 | COC(=O)C1=C(C)NC(C)=C(C(=O)OC(C)(C)CN(C)CCC(c2ccccc2)c2ccccc2)C1c1cccc([N+](=O)[O-])c1 (centres unmarked) [Lercanidipine, methyl 1,1,N-trimethyl-N-(3,3-diphenylpropyl)-2-aminoethyl 1,4-dihyaro-2,6-dimethyl-4-(3-nitrophenyl)pyridine-3,5-dicarboxylate] |  | 2 to 3 h
